Experimental data: article PMC11231114 (EJNMMI Research, 2024)
Several values for one entry are separate records, joined by “and”; a condition that tells them apart may be missing. Equal entries are not always repeated.

Experiments:
[1] = Blood activity clearance and pharmacokinetic parameters of radiolabelled compounds; type: in vivo; conditions: radiolabelled compound, rat
Experimental: Approximately 0.2 mL/31.1 MBq of compound was administered i.v. At established time points after injection (15 min, 30 min, 1 h, 2 h, 4 h and 6 h), the animals were euthanized by cervical dislocation and dissected. Selected organs and tissues were weighed, and their radioactivity was measured using a NaI(Tl) crystal gamma counter. The results were adjusted for the radioactive decay of ^18F. The physiological distribution was calculated and expressed in terms of the percentage of administrated dose found in each of the selected organs (%ID) or per gram of tissues/organ (%ID/g) with suitable standards of the injected dose.
For [^18F]SYN2 the initial fast decrease mainly represents the equilibrium between the intravascular and extravascular components, and the second slower phase represents the metabolism.

[2] = Dosimetry: human absorbed dose extrapolated from rat biodistribution (OLINDA/EXM); conditions: human estimate extrapolated from rats
Excerpt: The pharmacokinetics data from ex vivo biodistribution studies in rats were extrapolated to humans using the simplest allometric scaling model to estimate an effective dose in mSv/MBq. The dose calculation was done using computer software for internal dose assessment OLINDA/EXM® (Version 1.1, copyright Vanderbilt University, 2007).
This work estimated the human absorbed radiation dose based on a detailed description of activity organ distribution data for normal rats. […] Additionally, the obtained theoretical values for examined cardiotracers were compared with [^18F]flurpiridaz absorbed dose calculated in exercise stress subjects in humans (Table 6).

CN(C)c1ccc2cc3ccc(N(C)C)cc3[n+](CC[18F])c2c1 [[^18F]SYN2]
AUCt ([1]; i.v.): 421 ng·h/mL
Cl ([1]; i.v.): 0.2 mL/min/kg
Cmax ([1]; i.v.): 76.39 ng/mL
Tmax ([1]; i.v.): 0 h
Vz ([1]; i.v.): 1.43 L/kg
T½ ([1]; calculated from Eq. (0.693 · VZ · AUC)/dose): 79.9 h
Absorbed dose per administrated activity, Adrenals [2]: 8.06E-03 mSv/MBq
Absorbed dose per administrated activity, Brain [2]: 2.84E-03 mSv/MBq
Absorbed dose per administrated activity, Breasts [2]: 2.93E-03 mSv/MBq
Absorbed dose per administrated activity, Gallbladder Wall [2]: 8.01E-03 mSv/MBq
Absorbed dose per administrated activity, Heart Wall [2]: 0.0415 mSv/MBq and 0.042 mSv/MBq and 4.15E-02 mSv/MBq
Absorbed dose per administrated activity, Kidneys [2]: 0.0704 mSv/MBq and 0.070 mSv/MBq and 7.04E-02 mSv/MBq
Absorbed dose per administrated activity, Liver [2]: 1.17E-02 mSv/MBq
Absorbed dose per administrated activity, Lower Large Intestine Wall [2]: 1.18E-02 mSv/MBq
Absorbed dose per administrated activity, Lungs [2]: 2.16E-02 mSv/MBq
Absorbed dose per administrated activity, Muscle [2]: 1.03E-02 mSv/MBq
Absorbed dose per administrated activity, Osteogenic Cells [2]: 4.02E-03 mSv/MBq
Absorbed dose per administrated activity, Ovaries [2]: 7.10E-03 mSv/MBq
Absorbed dose per administrated activity, Pancreas [2]: 0.0285 mSv/MBq and 2.85E-02 mSv/MBq
Absorbed dose per administrated activity, Red Marrow [2]: 4.77E-03 mSv/MBq
Absorbed dose per administrated activity, Skin [2]: 2.65E-03 mSv/MBq
Absorbed dose per administrated activity, Small Intestine [2]: 1.84E-02 mSv/MBq
Absorbed dose per administrated activity, Spleen [2]: 2.13E-02 mSv/MBq
Absorbed dose per administrated activity, Stomach Wall [2]: 1.19E-02 mSv/MBq
Absorbed dose per administrated activity, Testes [2]: 4.97E-03 mSv/MBq
Absorbed dose per administrated activity, Thymus [2]: 5.48E-03 mSv/MBq
Absorbed dose per administrated activity, Thyroid [2]: 2.49E-02 mSv/MBq
Absorbed dose per administrated activity, Total Body [2]: 7.67E-03 mSv/MBq
Absorbed dose per administrated activity, Upper Large Intestine Wall [2]: 2.01E-02 mSv/MBq
Absorbed dose per administrated activity, Urinary Bladder Wall [2]: 5.29E-03 mSv/MBq
Absorbed dose per administrated activity, Uterus [2]: 6.27E-03 mSv/MBq
Effective Dose Equivalent [2]: 1.71E-02 mSv/MBq
Effective dose [2]: 0.0109 mSv/MBq and 1.09E-02 mSv/MBq
